From ChEMBL document CHEMBL5385858, “Identification of novel Pyrrolo[2,3-d]Pyrimidine-based KRAS G12C inhibitors with anticancer effects” (Eur J Med Chem, 2023)
Active and inactive are the calls of the source. No cut-off for these calls is given here.

How the values were obtained:
[1] = Toxicity in BALB/c-nu/nu mouse xenografted with human NCI-H358 cells assessed as drug tolerance at 10 to 30 mg/kg, po qd treated for 20 days; assay type: organism-based; settings: in vivo, 480 h, dose 10-30 mg/kg, time 20 day
MIA PaCa-2 = assay: Antiproliferative activity against human MIA PaCa-2 cells harboring KRAS G12C mutant assessed as inhibition of cell proliferation incubated for 3 days by CCK8 assay; assay type: functional, cell-based; settings: MIA PaCa-2, 72 h
NCI-H358 [2] = assay: In vivo inhibition of KRAS G12C mutant in human NCI-H358 cells xenografted in BALB/c-nu/nu mouse assessed as decrease in ERK phosphorylation at 10 to 30 mg/kg, po qd treated for 20 days by Western blot analysis; assay type: functional, organism-based; settings: dose 10-30 mg/kg, time 20.0 day
NCI-H358 [3] = assay: Antiproliferative activity against human NCI-H358 cells assessed as inhibition of cell proliferation at 0.03 uM incubated for 14 days by crystal violet staining based colony formation assay; assay type: functional; settings: time 14.0 day
[4] = Clearance in ICR mouse at 3 mg/kg, iv measured for 24 hrs by LC-MS/MS analysis; assay type: ADME, organism-based; settings: in vivo
[5] = C0 in ICR mouse at 3 mg/kg, iv measured for 24 hrs by LC-MS/MS analysis; assay type: ADME, organism-based; settings: in vivo
[6] = C0 in ICR mouse at 30 mg/kg, po measured for 24 hrs by LC-MS/MS analysis; assay type: ADME, organism-based; settings: in vivo
[7] = tested on: GTPase KRas (Homo sapiens), P01116 [G12C]; assay: Inhibition of KRAS G12C mutant RBD in human NCI-H358 cells upto 1 uM in presence of GTP by pull-down assay; assay type: cell-based; settings: time 24.0 hrs, TDE = time-dependent effect
NCI-H358 [8] = assay: Antitumor activity in human NCI-H358 cells xenografted in BALB/c-nu/nu mouse assessed as tumor regression at 30 mg/kg, po qd treated for 20 days; assay type: functional, organism-based; settings: time 20.0 day
[9] = Half life in ICR mouse at 3 mg/kg, iv measured for 24 hrs by LC-MS/MS analysis; assay type: ADME, organism-based; settings: in vivo
NCI-H358 [10] = assay: Induction of apoptosis in human NCI-H358 cells assessed as early apoptotic cells at 0.1 uM incubated for 24 hrs by Annexin V-FITC/PI staining based flow cytometry (reference value: 5.4 %); assay type: functional
NCI-H358 [11] = assay: Induction of apoptosis in human NCI-H358 cells assessed as increase in cleaved caspase-7 level upto 5 uM incubated for 24 hrs by Western blot analysis; assay type: functional, cell-based
[12] = AUC (0 to t) in ICR mouse at 3 mg/kg, iv measured for 24 hrs by LC-MS/MS analysis; assay type: ADME, organism-based; parameters: dose 3 mg/kg, time 24 hrs, route iv; settings: in vivo
[13] = Toxicity in BALB/c-nu/nu mouse xenografted with human NCI-H358 cells assessed as body weight loss at 10 to 30 mg/kg, po qd treated for 20 days; assay type: organism-based; settings: in vivo, 480 h, dose 10-30 mg/kg, time 20 day
[14] = Volume of distribution at steady state in ICR mouse at 3 mg/kg, iv measured for 24 hrs by LC-MS/MS analysis; assay type: ADME, organism-based; settings: in vivo, read-out: Vdss
NCI-H1975 = assay: Antiproliferative activity against human NCI-H1975 cells harboring wild-type KRAS assessed as inhibition of cell proliferation incubated for 3 days by CCK8 assay; assay type: functional, cell-based; settings: NCI-H1975, 72 h
[15] = tested on: GTPase KRas (Homo sapiens), P01116 [G12C]; assay: Inhibition of KRAS G12C mutant RBD in human NCI-H358 cells incubated for 24 hrs in presence of GTP by pull-down assay; assay type: cell-based; settings: dose <= 1.0 µM
NCI-H358 [16] = assay: Induction of apoptosis in human NCI-H358 cells assessed as viable cells at 0.1 uM incubated for 24 hrs by Annexin V-FITC/PI staining based flow cytometry (reference value: 91.4 %); assay type: functional; settings: Homo sapiens, NCI-H358, read-out: Activity
[17] = Toxicity in BALB/c-nu/nu mouse xenografted with human NCI-H358 cells assessed as morphological damage in kidney at 10 to 30 mg/kg, po qd treated for 20 days; assay type: organism-based; settings: in vivo, 480 h, dose 10-30 mg/kg, time 20 day
A549 = assay: Antiproliferative activity against human A549 cells harboring KRAS G12S mutant assessed as inhibition of cell proliferation incubated for 3 days by CCK8 assay; assay type: functional, cell-based; settings: A549, 72 h
[18] = Toxicity in BALB/c-nu/nu mouse xenografted with human NCI-H358 cells assessed as histological change in kidney at 10 to 30 mg/kg, po qd treated for 20 days by H and E staining based analysis; assay type: organism-based; settings: in vivo, 480 h, dose 10-30 mg/kg, time 20 day
[19] = AUC (0 to infinity) in ICR mouse at 3 mg/kg, iv measured for 24 hrs by LC-MS/MS analysis; assay type: ADME, organism-based; parameters: dose 3 mg/kg, time 24 hrs, route iv; settings: in vivo
[20] = tested on: GTPase KRas (Homo sapiens), P01116 [G12C]; assay: Inhibition of KRAS G12C mutant in human NCI-H358 cells assessed as decrease in ERK phosphorylation incubated for 2 to 72 hrs by Western blot analysis; assay type: cell-based; settings: time 2-72 hrs
NCI-H358 [21] = assay: Antitumor activity in human NCI-H358 cells xenografted in BALB/c-nu/nu mouse assessed as tumor growth inhibition at 30 mg/kg, po qd treated for 20 days relative to control; assay type: functional; settings: NCI-H358, 480 h, time 20 day, read-out: TGI
NCI-H358 [22] = assay: Induction of apoptosis in human NCI-H358 cells assessed as necrotic cells at 0.3 uM incubated for 24 hrs by Annexin V-FITC/PI staining based flow cytometry (reference value: 1.88 %); assay type: functional
[23] = AUC (0 to infinity) in ICR mouse at 30 mg/kg, po measured for 24 hrs by LC-MS/MS analysis; assay type: ADME, organism-based; parameters: time 24 hrs, dose 30 mg/kg, route po; settings: in vivo
[24] = tested on: GTPase KRas (Homo sapiens), P01116 [G12C]; assay: Inhibition of KRAS G12C mutant in human NCI-H358 cells assessed as decrease in AKT phosphorylation upto 5 uM by Western blot analysis; assay type: cell-based; settings: time 2-72 hrs, TDE = time-dependent effect
[25] = tested on: GTPase KRas (Homo sapiens), P01116 [G12C]; assay: Inhibition of KRAS G12C mutant in human NCI-H358 cells assessed as decrease in ERK phosphorylation at 0.1 uM incubated for 4 to 24 hrs by Western blot analysis; assay type: cell-based; settings: time 4-24 hrs
[26] = Toxicity in BALB/c-nu/nu mouse xenografted with human NCI-H358 cells assessed as morphological damage in spleen at 10 to 30 mg/kg, po qd treated for 20 days; assay type: organism-based; settings: in vivo, 480 h, dose 10-30 mg/kg, time 20 day
NCI-H358 [27] = assay: Inhibition of cell invasion in human NCI-H358 cells measured for 24 hrs by transwell assay; assay type: functional, cell-based
[28] = Oral bioavailability in ICR mouse at 30 mg/kg measured for 24 hrs by LC-MS/MS analysis; assay type: ADME, organism-based; settings: in vivo

Chain of GTPase KRas (Homo sapiens), P01116 [G12C] (P01116 whole entry G12C): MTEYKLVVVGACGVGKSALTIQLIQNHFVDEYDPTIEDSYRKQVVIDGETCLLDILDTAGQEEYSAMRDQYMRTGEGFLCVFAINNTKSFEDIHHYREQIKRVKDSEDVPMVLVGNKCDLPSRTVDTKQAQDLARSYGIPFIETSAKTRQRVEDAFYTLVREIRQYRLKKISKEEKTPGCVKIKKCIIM

Compound: C=CC(=O)N1CCN(c2nc(OC[C@@]34CCCN3C[C@H](F)C4)nc3c2cc(-c2cccc4cccc(C)c24)n3C)C[C@@H]1CC#N
- Activity [1]: Non-Toxic
- IC50 (MIA PaCa-2): 0.87 µM
- inhibition (NCI-H358 [2]): Active
- inhibition (NCI-H358 [3]): Active
- clearance [4]: 62.3 mL/min/kg
- C0 at 24 h [5]: 1960 ng/mL
- C0 [6]: 316 ng/mL
- inhibition [7]: Tde
- Activity (NCI-H358 [8]): Active
- half-life [9]: 55.8 min
- Activity (NCI-H358 [10]): 10.5%
- Activity (NCI-H358 [11]): Active
- AUC(0-t) at 24 h [12]: 801 ng·h/mL
- Activity [13]: Non-Toxic
- Vd [14]: 4.98 L/kg
- IC50 (NCI-H1975): 7.91 µM
- inhibition [15]: Dose-Dependent Effect
- viability at 0.1 µM (NCI-H358 [16]): 84.6%
- Activity [17]: Non-Toxic
- IC50 (A549): 29.9 µM
- Activity [18]: Non-Toxic
- AUC(0-inf) [19]: 804 ng·h/mL
- inhibition [20]: Dose-Dependent Effect
- inhibition in vivo at 30 mg/kg (NCI-H358 [21]): 84%
- Activity (NCI-H358 [22]): 1.06%
- AUC(0-inf) [23]: 835 ng·h/mL
- inhibition [24]: Tde
- inhibition [25]: Active
- Activity [26]: Non-Toxic
- Activity (NCI-H358 [27]): Dose-Dependent Effect
- bioavailability [28]: 10.4%
